# From patent US20080124274A1, “Compositions and methods for detecting and treating tumors containing acidic areas” (priority 2006, published 2008)
# Several values for one entry are separate records, joined by “and”; a condition that tells them apart may be missing. Equal entries are not always repeated.
# Tests used:
# [1] = urine rendered basic; cited from earlier work
# [2] = system: tumors; conditions: tumor-bearing mice; reduction of about 0.3 pH units in the tumors; cited from earlier work
# [3] = Titration of the sodium salt with HCl in aqueous solution
# Procedure: Typically new structures that may be suitable as advanced pH-switch components are first assessed for their pKa value in normal saline. This entails preparing the sodium salt form of the structure and dissolving it at a concentration of 20 milliMolar in 15 ml of 0.15 Molar NaCl (deareated to remove CO2). […] A plot of pH versus volume of added HCl affords the effective pKa value. It is also desirable to carry out this same titration in methanol/water (1:1 by vol) in order to get an estimate of the pKa value independent of insolubility effects.
# [4] = system: acidic areas of tumors; conditions: without corresponding reduction of pH in normal tissues; cited from earlier work
compound,measurement,setting,value
CC(=O)Nc1nnc(S(N)(=O)=O)s1 [Acetazolamide],pH of the urine,[1],≥ 7.4
O=C(O)CCCc1ccc(N(CCCl)CCCl)cc1 [Chlorambucil],improvement in tumor growth delay,[2],1.7 fold
CN(C)C(=O)C=CC(=O)O [FIG. 14b],mid-point of the transition between salt and acid (pKa value),[3]; sodium salt titrated with HCl in aqueous solution,below 3.0
"N=C(N)NCc1cccc([131I])c1 [meta-iodobenzylguanidine, reference compound]",reduction of the pH in acidic areas of tumors,[4],further reduced
"CCC[N+]1([O-])CCC(C(=O)O)CC1 (stereo not drawn) [structure iii in FIG. 16b, N-oxide of N-propylisonipocotic acid]",minimum of the first derivative of the titration curve (pH),[3]; sodium salt titrated in aqueous solution,~4.0 and ~5.6
glucose and meta-iodobenzylguanidine,reduction of the pH in acidic areas of tumors,[4],≤ 0.7 pH unit
